{"source": "paper PMC7954990", "about": "(European journal of medicinal chemistry, 2021)", "key": {"CDK2/cyclin A [1]": {"target": "T1, CDK2/cyclin A (Homo sapiens, UniProt P24941)", "test": "CDK2/cyclin A enzyme assay", "format": "biochemical", "settings": "Tables 1 and 2"}, "CDK2": {"target": "CDK2 (Homo sapiens, UniProt P24941)", "test": "DiscoverX kinase binding assay for Kd", "settings": "for better binding affinity for CDK2 compared to screening hit 3: relative to 3"}, "MCF-7 cell line": {"test_system": "MCF-7 cell line", "test": "Antiproliferation assay", "format": "cell-based", "settings": "72 h, alamarBlue, highest concentration tested"}, "CDK2/cyclin A [2]": {"target": "T1, CDK2/cyclin A", "test": "Reaction Biology 33P-ATP filter-binding kinase assay, CDK2/cyclin A", "format": "biochemical"}, "CDK complexes": {"test_system": "CDK complexes", "test": "Reaction Biology single-dose kinase profiling of CDK complexes", "format": "biochemical", "settings": "all tested CDK complexes"}, "CDK2/cyclin E": {"target": "CDK2/cyclin E (Homo sapiens, UniProt P24941)", "test": "Reaction Biology 33P-ATP filter-binding kinase assay, CDK2/cyclin E", "format": "biochemical"}, "HSP90": {"test_system": "HSP90", "test": "Test against HSP90", "settings": "data not shown"}, "MDCK cell line": {"test_system": "MDCK cell line", "test": "MDCK cell permeability assay", "format": "in vitro ADME", "settings": "1 μM, 2 h; for Papp (A-B) (10^−6, cm/s): apical to basolateral; for Papp (B-A) (10^−6, cm/s): basolateral to apical"}}, "data": [{"smiles": "Cc1nn(-c2ccccn2)c2c1C(=O)NCC(C)(C)C2", "note": "[Compound 20, 3,7,7-Trimethyl-1-(pyridin-2-yl)-5,6,7,8-tetrahydropyrazolo[4,3-c]azepin-4(1H)-one]", "values": [{"measurement": "CDK2/cyclin A inhibitory activity, in words", "setting": "CDK2/cyclin A [1]", "value": "inactive"}]}, {"smiles": "Cc1nn(-c2ncccc2C(F)(F)F)c2c1C(=O)C(Br)C(C)(C)C2", "note": "(stereo not shown) [Compound 47, 5-Bromo-3,6,6-trimethyl-1-(3-(trifluoromethyl)pyridin-2-yl)-6,7-dihydro-1H-indazol-4(5H)-one]", "values": [{"measurement": "CDK2/cyclin A inhibitory activity, in words", "setting": "CDK2/cyclin A [1]", "value": "low activities"}]}, {"smiles": "Cc1nn(-c2ccncn2)c2c1C(=O)CC(C)(C)C2Br", "note": "(stereo not shown) [Compound 59, 7-Bromo-3,6,6-trimethyl-1-(pyrimidin-4-yl)-6,7-dihydro-1H-indazol-4(5H)-one]", "values": [{"measurement": "better binding affinity for CDK2 compared to screening hit 3", "setting": "CDK2", "value": 3, "unit": "fold"}, {"measurement": "antiproliferative activities against MCF-7 cell line, none up to", "setting": "MCF-7 cell line", "value": "> 200", "unit": "µM"}, {"measurement": "IC50", "setting": "CDK2/cyclin A [2]", "value": 120, "unit": "nM"}]}, {"smiles": "Cc1cccnc1-n1nc(C)c2c1CC(C)(C)C(Br)C2=O", "note": "(stereo not shown) [Compound 40, 5-Bromo-3,6,6-trimethyl-1-(3-methylpyridin-2-yl)-6,7-dihydro-1H-indazol-4(5H)-one]", "values": [{"measurement": "CDK2/cyclin A inhibitory activity, in words", "setting": "CDK2/cyclin A [1]", "value": "low activities"}]}, {"smiles": "Cc1nn(-c2ccccn2)c2c1C(=O)CC(C)C2Br", "note": "(stereo not drawn) [Compound 18b-cis, 7-Bromo-3,6-dimethyl-1-(pyridin-2-yl)-6,7-dihydro-1H-indazol-4(5H)-one]", "values": [{"measurement": "Inhibition of CDK complexes at 1 μM, in words", "setting": "CDK complexes", "value": "did not exhibit significant inhibitory activity"}]}, {"smiles": "Cc1nn(-c2ccccn2)c2c1C(O)CC(C)(C)C2Br", "note": "(stereo not shown) [Compound 22, 7-Bromo-3,6,6-trimethyl-1-(pyridin-2-yl)-4,5,6,7-tetrahydro-1H-indazol-4-ol]", "values": [{"measurement": "CDK2/cyclin A inhibitory activity, in words", "setting": "CDK2/cyclin A [1]", "value": "weak inhibitory activity"}]}, {"smiles": "Cc1nn(-c2nccs2)c2c1C(=O)CC(C)(C)C2Br", "note": "(stereo not shown) [Compound 53, 7-Bromo-3,6,6-trimethyl-1-(thiazol-2-yl)-6,7-dihydro-1H-indazol-4(5H)-one]", "values": [{"measurement": "better binding affinity for CDK2 compared to screening hit 3", "setting": "CDK2", "value": 3, "unit": "fold"}, {"measurement": "antiproliferative activities against MCF-7 cell line, none up to", "setting": "MCF-7 cell line", "value": "> 200", "unit": "µM"}, {"measurement": "IC50", "setting": "CDK2/cyclin A [2]", "value": 61.9, "unit": "nM"}, {"measurement": "IC50", "setting": "CDK2/cyclin E", "value": 2, "unit": "nM"}]}, {"smiles": "Cc1nn(-c2ccccn2)c2c1C(=O)NCC(C)(C)C2Br", "note": "(stereo not shown) [Compound 21, 8-Bromo-3,7,7-trimethyl-1-(pyridin-2-yl)-5,6,7,8-tetrahydropyrazolo[4,3-c]azepin-4(1H)-one]", "values": [{"measurement": "CDK2/cyclin A inhibitory activity, in words", "setting": "CDK2/cyclin A [1]", "value": "moderately active"}]}, {"smiles": "Cc1nn(-c2ccccn2)c2c1C(=O)CC(c1ccccc1)C2Br", "note": "(stereo not shown) [Compound 18d, 7-Bromo-3-methyl-6-phenyl-1-(pyridin-2-yl)-6,7-dihydro-1H-indazol-4(5H)-one]", "values": [{"measurement": "CDK2/cyclin A inhibitory activity, in words", "setting": "CDK2/cyclin A [1]", "value": "inactive"}]}, {"smiles": "Cc1nn(-c2ccccn2)c2c1NC(=O)CC(C)(C)C2", "note": "[Compound 19, 3,7,7-Trimethyl-1-(pyridin-2-yl)-4,6,7,8-tetrahydropyrazolo[4,3-b]azepin-5(1H)-one]", "values": [{"measurement": "CDK2/cyclin A inhibitory activity, in words", "setting": "CDK2/cyclin A [1]", "value": "inactive"}]}, {"smiles": "Cc1nn(-c2ncccc2C(F)(F)F)c2c1C(=O)CC(C)(C)C2Br", "note": "(stereo not shown) [Compound 46, 7-Bromo-3,6,6-trimethyl-1-(3-(trifluoromethyl)pyridin-2-yl)-6,7-dihydro-1H-indazol-4(5H)-one]", "values": [{"measurement": "CDK2/cyclin A inhibitory activity, in words", "setting": "CDK2/cyclin A [1]", "value": "low activities"}]}, {"smiles": "Cc1nn(-c2ccccn2)c2c1C(=O)CC(C)(C)C2Br", "note": "(stereo not shown) [Compound 3, 7-Bromo-3,6,6-trimethyl-1-(pyridin-2-yl)-6,7-dihydro-1H-indazol-4(5H)-one]", "values": [{"measurement": "Kd", "setting": "CDK2", "value": 15000, "unit": "nM"}, {"measurement": "antiproliferative activities against MCF-7 cell line, none up to", "setting": "MCF-7 cell line", "value": "> 200", "unit": "µM"}, {"measurement": "activity against HSP90", "setting": "HSP90", "value": "did not exhibit any activity"}, {"measurement": "IC50", "setting": "CDK2/cyclin A [2]", "value": 86, "unit": "nM"}, {"measurement": "Papp (A-B) (10^−6, cm/s)", "setting": "MDCK cell line", "value": "20.1 10^−6, cm/s"}, {"measurement": "Papp (B-A) (10^−6, cm/s)", "setting": "MDCK cell line", "value": "9.52 10^−6, cm/s"}]}, {"smiles": "COCCc1ccc(OCC(O)CNC(C)C)cc1", "note": "(stereo not shown) [Metoprolol, metoprolol, reference compound]", "values": [{"measurement": "Papp (A-B) (10^−6, cm/s)", "setting": "MDCK cell line", "value": "26.9 10^−6, cm/s"}, {"measurement": "Papp (B-A) (10^−6, cm/s)", "setting": "MDCK cell line", "value": "21.2 10^−6, cm/s"}]}, {"smiles": "Cc1nn(-c2ccccn2)c2c1/C(=N/O)CC(C)(C)C2Br", "note": "(stereo not shown) [Compound 23, 7-Bromo-3,6,6-trimethyl-1-(pyridin-2-yl)-6,7-dihydro-1H-indazol-4(5H)-one Oxime]", "values": [{"measurement": "CDK2/cyclin A inhibitory activity, in words", "setting": "CDK2/cyclin A [1]", "value": "weak inhibitory activity"}]}]}
